The results in this text go back to ChEMBL document CHEMBL1142791, “Design, synthesis, and evaluation of 2-phenoxy-indan-1-one derivatives as acetylcholinesterase inhibitors” (Bioorg Med Chem Lett, 2005).

The term IC50 denotes the concentration that gives 50% inhibition. The low end stands for inhibition by little substance, the high end for a need for much substance.

For one experiment, the target named is Butyrylcholinesterase (Rattus norvegicus, UniProt Q9JKC1). Description: In vitro inhibitory concentration against butyrylcholinesterase was determined using rat serum homogenate.
Butyrylcholinesterase, sequence (Q9JKC1 whole entry): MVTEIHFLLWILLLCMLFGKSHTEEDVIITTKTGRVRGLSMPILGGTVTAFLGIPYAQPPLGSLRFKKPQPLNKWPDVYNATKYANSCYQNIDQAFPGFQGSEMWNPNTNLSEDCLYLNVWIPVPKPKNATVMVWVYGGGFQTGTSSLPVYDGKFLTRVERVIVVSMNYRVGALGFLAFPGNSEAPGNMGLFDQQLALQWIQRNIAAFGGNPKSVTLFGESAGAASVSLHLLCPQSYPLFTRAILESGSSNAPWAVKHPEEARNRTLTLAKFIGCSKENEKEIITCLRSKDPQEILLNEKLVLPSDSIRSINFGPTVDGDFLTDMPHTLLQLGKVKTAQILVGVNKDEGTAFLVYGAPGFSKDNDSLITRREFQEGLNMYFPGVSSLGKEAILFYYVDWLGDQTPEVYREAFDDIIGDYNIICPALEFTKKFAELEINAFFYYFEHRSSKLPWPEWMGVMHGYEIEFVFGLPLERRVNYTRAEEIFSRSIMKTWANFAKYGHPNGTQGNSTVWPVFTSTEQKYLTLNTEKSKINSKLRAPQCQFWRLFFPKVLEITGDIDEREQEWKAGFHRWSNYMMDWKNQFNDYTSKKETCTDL
Another experiment has as its target T1, Acetylcholinesterase (Rattus norvegicus, UniProt P37136).
T1 sequence (P37136 whole entry): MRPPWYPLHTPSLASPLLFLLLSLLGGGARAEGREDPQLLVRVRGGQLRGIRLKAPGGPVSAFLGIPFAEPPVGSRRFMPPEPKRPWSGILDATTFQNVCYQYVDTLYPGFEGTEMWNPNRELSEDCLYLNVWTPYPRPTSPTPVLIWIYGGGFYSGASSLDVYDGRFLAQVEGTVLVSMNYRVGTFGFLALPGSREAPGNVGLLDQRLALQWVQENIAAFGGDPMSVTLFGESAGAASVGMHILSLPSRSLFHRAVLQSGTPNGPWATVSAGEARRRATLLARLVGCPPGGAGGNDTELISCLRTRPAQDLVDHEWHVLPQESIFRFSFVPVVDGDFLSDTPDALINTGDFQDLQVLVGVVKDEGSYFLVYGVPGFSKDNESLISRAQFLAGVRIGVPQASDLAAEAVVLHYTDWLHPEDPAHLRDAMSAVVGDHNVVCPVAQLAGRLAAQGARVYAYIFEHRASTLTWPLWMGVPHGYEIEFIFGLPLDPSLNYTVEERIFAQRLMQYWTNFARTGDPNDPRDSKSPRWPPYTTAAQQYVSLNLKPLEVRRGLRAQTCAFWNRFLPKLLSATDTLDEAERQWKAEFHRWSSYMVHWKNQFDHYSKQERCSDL

Description for Acetylcholinesterase: In vitro inhibitory concentration against rat cortex acetylcholinesterase

Take `COc1cc2c(cc1OC)C(=O)C(Oc1ccc(C(C)N(C)C)cc1)C2` (stereo not drawn): 1370 µM corresponded to half-maximal inhibition at Butyrylcholinesterase (IC50). Turning to `COc1cc2c(cc1OC)C(=O)C(Oc1ccc(CN3CCOCC3)cc1)C2` (stereo not drawn), the values for the IC50 at Acetylcholinesterase and against Butyrylcholinesterase were 1.3 µM and 384 µM, respectively.

Regarding `COc1cc2c(cc1OC)C(=O)C(Oc1ccc(CN3CCCCC3)cc1)C2` (stereo not drawn), the IC50 turned out to be 0.15 µM against Acetylcholinesterase and 262 µM against Butyrylcholinesterase. For the compound `COc1cc2c(cc1OC)C(=O)C(Oc1ccc(C(C)N3CCCCC3)cc1)C2` (stereo not drawn), the IC50 was 0.13 µM at Acetylcholinesterase and 176 µM on Butyrylcholinesterase. The corresponding values for `CCN(CC)Cc1ccc(OC2Cc3cc(OC)c(OC)cc3C2=O)cc1` (stereo not drawn) are 0.1 µM and 251 µM. Regarding `COc1cc2c(cc1OC)C(=O)C(Oc1ccc(C(C)N3CCCC3)cc1)C2` (stereo not drawn), the IC50 stood at 0.14 µM against Acetylcholinesterase and 130 µM on Butyrylcholinesterase. For `COc1cc2c(cc1OC)C(=O)C(Oc1ccc(CN3CCCC3)cc1)C2` (stereo not drawn), the IC50 at Acetylcholinesterase was 0.05 µM; on Butyrylcholinesterase, 84.3 µM.

As to `CCN(CC)C(C)c1cccc(OC2Cc3cc(OC)c(OC)cc3C2=O)c1` (stereo not drawn), the values for the IC50 against Acetylcholinesterase and against Butyrylcholinesterase were 1.36 µM and 199 µM, respectively.

As for `CCN(CC)Cc1cccc(OC2Cc3cc(OC)c(OC)cc3C2=O)c1` (stereo not drawn), the IC50 stood at 2.28 µM on Acetylcholinesterase and 190 µM on Butyrylcholinesterase. On to `CCN(CC)C(C)c1ccc(OC2Cc3cc(OC)c(OC)cc3C2=O)cc1` (stereo not drawn), for which the IC50 came to 0.22 µM against Acetylcholinesterase and 234 µM on Butyrylcholinesterase. Take `COc1cc2c(cc1OC)C(=O)C(Oc1cccc(C(C)N3CCN(C)CC3)c1)C2` (stereo not drawn): the IC50 amounted to 17.6 µM on Acetylcholinesterase and 252 µM against Butyrylcholinesterase. Turning to `COc1cc2c(cc1OC)C(=O)C(Oc1cccc(CN3CCCCC3)c1)C2` (stereo not drawn), the IC50 amounted to 3.18 µM at Acetylcholinesterase and 55.5 µM against Butyrylcholinesterase. As to `COc1cc2c(cc1OC)C(=O)C(Oc1cccc(CN(C)C)c1)C2` (stereo not drawn), the IC50 on Butyrylcholinesterase came out at 207 µM. On the same count and under the same terms, with `COc1cc2c(cc1OC)C(=O)C(Oc1cccc(CN3CCOCC3)c1)C2` (stereo not drawn) the figure was 219 µM. Take `COc1cc2c(cc1OC)C(=O)C(Oc1cccc(C(C)N3CCCC3)c1)C2` (stereo not drawn): the IC50 was 1.96 µM against Acetylcholinesterase and 212 µM at Butyrylcholinesterase.

For the compound `COc1cc2c(cc1OC)C(=O)C(Oc1cccc(C(C)N3CCOCC3)c1)C2` (stereo not drawn), the IC50 on Butyrylcholinesterase came to 247 µM. With `COc1cc2c(cc1OC)C(=O)C(Oc1cccc(CN3CCN(C)CC3)c1)C2` (stereo not drawn), the IC50 against Acetylcholinesterase amounted to 6.41 µM; against Butyrylcholinesterase, 209 µM. As for `COc1cc2c(cc1OC)C(=O)C(Oc1ccc(CN3CCN(C)CC3)cc1)C2` (stereo not drawn), the figures for the IC50 against Acetylcholinesterase and against Butyrylcholinesterase were 1.42 µM and 347 µM, respectively. In the case of `COc1cc2c(cc1OC)C(=O)C(Oc1ccc(C(C)N3CCOCC3)cc1)C2` (stereo not drawn), the IC50 turned out to be 3.14 µM against Acetylcholinesterase and 346 µM on Butyrylcholinesterase. `COc1cc2c(cc1OC)C(=O)C(Oc1ccc(C(C)N3CCN(C)CC3)cc1)C2` (stereo not drawn): the IC50 at Acetylcholinesterase came out at 2.98 µM; at Butyrylcholinesterase it was 393 µM.

In the case of `COc1cc2c(cc1OC)C(=O)C(Oc1cccc(C(C)N3CCCCC3)c1)C2` (stereo not drawn), the IC50 turned out to be 3.58 µM at Acetylcholinesterase and 158 µM on Butyrylcholinesterase. Regarding `COc1cc2c(cc1OC)C(=O)C(Oc1cccc(CN3CCCC3)c1)C2` (stereo not drawn), half-maximal inhibition at Butyrylcholinesterase (IC50) was put at 39.5 µM. In the case of `COc1cc2c(cc1OC)C(=O)C(Oc1ccc(CN(C)C)cc1)C2` (stereo not drawn), the IC50 on Acetylcholinesterase was 0.21 µM; on Butyrylcholinesterase, 1980 µM. In the case of `COc1cc2c(cc1OC)C(=O)C(Oc1cccc(C(C)N(C)C)c1)C2` (stereo not drawn), the IC50 turned out to be 0.82 µM at Acetylcholinesterase and 288 µM against Butyrylcholinesterase.
